PubChem BioAssay AID2060331 (Molecular Pharmacology Branch, DTP, NCI, 2025)

Test system: Hs578T multi-cell spheroids, viability
Test: Anticancer human tumor Hs578T cell line growth inhibition [IpAb];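 note: drug exposure lasted 7 days before readout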
Conditions: for IC50: curve of first compound; for viability, T/C: stronger effect = lower value
How it was run: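 Multi-cell spheroids of 60% tumour cells, 25% HUVEC and 15% MSC in ultra-low-attachment U-bottom wells, treated with agents combined with ipatasertib or abemaciclib. Half-log ranges top out near clinical Cmax, or 10 microM when Cmax is unknown.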

[1] = second compound 0.01 µM, first compound 0.0316 µM
[2] = second compound 0.01 µM, first compound 0.1 µM
[3] = second compound 0.01 µM, first compound 0.316 µM
[4] = second compound 0.01 µM, first compound 1 µM
[5] = second compound 0.01 µM, first compound 3.16 µM
[6] = second compound 0.01 µM, first compound 10 µM
[7] = second compound 0.0316 µM, first compound 0.0316 µM
[8] = second compound 0.0316 µM, first compound 0.1 µM
[9] = second compound 0.0316 µM, first compound 0.316 µM
[10] = second compound 0.0316 µM, first compound 1 µM
[11] = second compound 0.0316 µM, first compound 3.16 µM
[12] = second compound 0.0316 µM, first compound 10 µM
[13] = second compound 0.1 µM, first compound 0.0316 µM
[14] = second compound 0.1 µM, first compound 0.1 µM
[15] = second compound 0.1 µM, first compound 0.316 µM
[16] = second compound 0.1 µM, first compound 1 µM
[17] = second compound 0.1 µM, first compound 3.16 µM
[18] = second compound 0.1 µM, first compound 10 µM
[19] = second compound 0.316 µM, first compound 0.0316 µM
[20] = second compound 0.316 µM, first compound 0.1 µM
[21] = second compound 0.316 µM, first compound 0.316 µM
[22] = second compound 0.316 µM, first compound 1 µM
[23] = second compound 0.316 µM, first compound 3.16 µM
[24] = second compound 0.316 µM, first compound 10 µM
[25] = second compound 1 µM, first compound 0.0316 µM
[26] = second compound 1 µM, first compound 0.1 µM
[27] = second compound 1 µM, first compound 0.316 µM
[28] = second compound 1 µM, first compound 1 µM
[29] = second compound 1 µM, first compound 3.16 µM
[30] = second compound 1 µM, first compound 10 µM

C=CCn1c(=O)c2cnc(Nc3ccc(N4CCN(C)CC4)cc3)nc2n1-c1cccc(C(C)(C)O)n1 + CCN1CCN(Cc2ccc(Nc3ncc(F)c(-c4cc(F)c5nc(C)n(C(C)C)c5c4)n3)nc2)CC1
IC50 (second compound 0.01 µM): 0.366 µM
IC50 (second compound 0.0316 µM): 0.376 µM
IC50 (second compound 0.1 µM): 0.459 µM
IC50 (second compound 0.316 µM): 1.26 µM
IC50 (second compound 1 µM): 2.14 µM
viability, T/C [1]: 92.1%
viability, T/C [2]: 86.3%
viability, T/C [3]: 51.9%
viability, T/C [4]: 27.9%
viability, T/C [5]: 16.8%
viability, T/C [6]: 17.2%
viability, T/C [7]: 86.3%
viability, T/C [8]: 75.3%
viability, T/C [9]: 53%
viability, T/C [10]: 31.9%
viability, T/C [11]: 21.2%
viability, T/C [12]: 17.4%
viability, T/C [13]: 82.6%
viability, T/C [14]: 72.2%
viability, T/C [15]: 57.1%
viability, T/C [16]: 36.4%
viability, T/C [17]: 24.9%
viability, T/C [18]: 19.2%
viability, T/C [19]: 80.4%
viability, T/C [20]: 76.9%
viability, T/C [21]: 69%
viability, T/C [22]: 55.6%
viability, T/C [23]: 32.3%
viability, T/C [24]: 21.4%
viability, T/C [25]: 94.4%
viability, T/C [26]: 92.9%
viability, T/C [27]: 79.4%
viability, T/C [28]: 65%
viability, T/C [29]: 42.5%
viability, T/C [30]: 24%

CC(C)n1nc(-c2ccc3oc(N)nc3c2)c2c(N)ncnc21 + CCN1CCN(Cc2ccc(Nc3ncc(F)c(-c4cc(F)c5nc(C)n(C(C)C)c5c4)n3)nc2)CC1
IC50 (second compound 0.01 µM): 0.00778 µM
IC50 (second compound 0.0316 µM): 0.00553 µM
IC50 (second compound 0.1 µM): 0.00564 µM
IC50 (second compound 0.316 µM): 0.00559 µM
IC50 (second compound 1 µM): 0.0101 µM
viability, T/C (second compound 0.01 µM, first compound 0.000316 µM): 94.1%
viability, T/C (second compound 0.01 µM, first compound 0.001 µM): 88.5%
viability, T/C (second compound 0.01 µM, first compound 0.00316 µM): 69.6%
viability, T/C (second compound 0.01 µM, first compound 0.01 µM): 46.2%
viability, T/C [1]: 19.9%
viability, T/C [2]: 13.2%
viability, T/C (second compound 0.0316 µM, first compound 0.000316 µM): 87.5%
viability, T/C (second compound 0.0316 µM, first compound 0.001 µM): 72.3%
viability, T/C (second compound 0.0316 µM, first compound 0.00316 µM): 63.2%
viability, T/C (second compound 0.0316 µM, first compound 0.01 µM): 39.8%
viability, T/C [7]: 18.3%
viability, T/C [8]: 14.9%
viability, T/C (second compound 0.1 µM, first compound 0.000316 µM): 78.8%
viability, T/C (second compound 0.1 µM, first compound 0.001 µM): 78.1%
viability, T/C (second compound 0.1 µM, first compound 0.00316 µM): 59.1%
viability, T/C (second compound 0.1 µM, first compound 0.01 µM): 40.8%
viability, T/C [13]: 18.7%
viability, T/C [14]: 15.2%
viability, T/C (second compound 0.316 µM, first compound 0.000316 µM): 82%
viability, T/C (second compound 0.316 µM, first compound 0.001 µM): 76.2%
viability, T/C (second compound 0.316 µM, first compound 0.00316 µM): 59%
viability, T/C (second compound 0.316 µM, first compound 0.01 µM): 40.6%
viability, T/C [19]: 23.1%
viability, T/C [20]: 15.8%
viability, T/C (second compound 1 µM, first compound 0.000316 µM): 93.5%
viability, T/C (second compound 1 µM, first compound 0.001 µM): 90.6%
viability, T/C (second compound 1 µM, first compound 0.00316 µM): 69%
viability, T/C (second compound 1 µM, first compound 0.01 µM): 48.8%
viability, T/C [25]: 34.9%
viability, T/C [26]: 19.8%

CC1(C)CCC(CN2CCN(c3ccc(C(=O)NS(=O)(=O)c4ccc(NCC5CCOCC5)c([N+](=O)[O-])c4)c(Oc4cnc5[nH]ccc5c4)c3)CC2)=C(c2ccc(Cl)cc2)C1 + CCN1CCN(Cc2ccc(Nc3ncc(F)c(-c4cc(F)c5nc(C)n(C(C)C)c5c4)n3)nc2)CC1
IC50 (second compound 0.01 µM): 5.96 µM
IC50 (second compound 0.0316 µM): 5.58 µM
IC50 (second compound 0.1 µM): 5.5 µM
IC50 (second compound 0.316 µM): 5.71 µM
IC50 (second compound 1 µM): 6.84 µM
viability, T/C [1]: 93.3%
viability, T/C [2]: 107%
viability, T/C [3]: 103%
viability, T/C [4]: 99.8%
viability, T/C [5]: 90.4%
viability, T/C [6]: 16.8%
viability, T/C [7]: 96.4%
viability, T/C [8]: 97%
viability, T/C [9]: 98.1%
viability, T/C [10]: 91.1%
viability, T/C [11]: 81%
viability, T/C [12]: 18.6%
viability, T/C [13]: 87.2%
viability, T/C [14]: 95.3%
viability, T/C [15]: 84.6%
viability, T/C [16]: 90.9%
viability, T/C [17]: 76.7%
viability, T/C [18]: 20.8%
viability, T/C [19]: 86.3%
viability, T/C [20]: 89.1%
viability, T/C [21]: 80.6%
viability, T/C [22]: 87.4%
viability, T/C [23]: 80.2%
viability, T/C [24]: 21.3%
viability, T/C [25]: 96.5%
viability, T/C [26]: 98.2%
viability, T/C [27]: 91.8%
viability, T/C [28]: 96.7%
viability, T/C [29]: 101%
viability, T/C [30]: 26.9%

CCCS(=O)(=O)Nc1ccc(F)c(C(=O)c2c[nH]c3ncc(-c4ccc(Cl)cc4)cc23)c1F + CCN1CCN(Cc2ccc(Nc3ncc(F)c(-c4cc(F)c5nc(C)n(C(C)C)c5c4)n3)nc2)CC1
IC50 (second compound 0.01 µM): 4.38 µM
IC50 (second compound 0.0316 µM): 4.19 µM
IC50 (second compound 0.1 µM): 4.32 µM
IC50 (second compound 0.316 µM): 4.67 µM
IC50 (second compound 1 µM): 5.52 µM
viability, T/C [1]: 96.9%
viability, T/C [2]: 103%
viability, T/C [3]: 99.1%
viability, T/C [4]: 97.4%
viability, T/C [5]: 67%
viability, T/C [6]: 8.02%
viability, T/C [7]: 95.3%
viability, T/C [8]: 100%
viability, T/C [9]: 98.6%
viability, T/C [10]: 92.4%
viability, T/C [11]: 64.4%
viability, T/C [12]: 5.43%
viability, T/C [13]: 90.8%
viability, T/C [14]: 87.6%
viability, T/C [15]: 87.1%
viability, T/C [16]: 82.5%
viability, T/C [17]: 66.4%
viability, T/C [18]: 6.9%
viability, T/C [19]: 92.4%
viability, T/C [20]: 89.5%
viability, T/C [21]: 87.8%
viability, T/C [22]: 79.9%
viability, T/C [23]: 71.7%
viability, T/C [24]: 11.4%
viability, T/C [25]: 106%
viability, T/C [26]: 97.4%
viability, T/C [27]: 102%
viability, T/C [28]: 104%
viability, T/C [29]: 87.1%
viability, T/C [30]: 10.3%

Cn1cnc2c(F)c(Nc3ccc(Br)cc3Cl)c(C(=O)NOCCO)cc21 + CCN1CCN(Cc2ccc(Nc3ncc(F)c(-c4cc(F)c5nc(C)n(C(C)C)c5c4)n3)nc2)CC1
IC50 (second compound 0.01 µM): 2.98 µM
IC50 (second compound 0.0316 µM): 2 µM
IC50 (second compound 0.1 µM): 1.47 µM
IC50 (second compound 0.316 µM): 2.02 µM
IC50 (second compound 1 µM): > 3 µM
viability, T/C (second compound 0.01 µM, first compound 0.00949 µM): 98.5%
viability, T/C (second compound 0.01 µM, first compound 0.03 µM): 95%
viability, T/C (second compound 0.01 µM, first compound 0.0949 µM): 82.1%
viability, T/C (second compound 0.01 µM, first compound 0.3 µM): 87.5%
viability, T/C (second compound 0.01 µM, first compound 0.949 µM): 69.4%
viability, T/C (second compound 0.01 µM, first compound 3 µM): 49.2%
viability, T/C (second compound 0.0316 µM, first compound 0.00949 µM): 88.3%
viability, T/C (second compound 0.0316 µM, first compound 0.03 µM): 77%
viability, T/C (second compound 0.0316 µM, first compound 0.0949 µM): 72.2%
viability, T/C (second compound 0.0316 µM, first compound 0.3 µM): 79.4%
viability, T/C (second compound 0.0316 µM, first compound 0.949 µM): 67.1%
viability, T/C (second compound 0.0316 µM, first compound 3 µM): 40.8%
viability, T/C (second compound 0.1 µM, first compound 0.00949 µM): 79.6%
viability, T/C (second compound 0.1 µM, first compound 0.03 µM): 70.6%
viability, T/C (second compound 0.1 µM, first compound 0.0949 µM): 77.7%
viability, T/C (second compound 0.1 µM, first compound 0.3 µM): 65.5%
viability, T/C (second compound 0.1 µM, first compound 0.949 µM): 58.3%
viability, T/C (second compound 0.1 µM, first compound 3 µM): 38.1%
viability, T/C (second compound 0.316 µM, first compound 0.00949 µM): 77.3%
viability, T/C (second compound 0.316 µM, first compound 0.03 µM): 74%
viability, T/C (second compound 0.316 µM, first compound 0.0949 µM): 68.3%
viability, T/C (second compound 0.316 µM, first compound 0.3 µM): 68.3%
viability, T/C (second compound 0.316 µM, first compound 0.949 µM): 56.2%
viability, T/C (second compound 0.316 µM, first compound 3 µM): 46%
viability, T/C (second compound 1 µM, first compound 0.00949 µM): 89.8%
viability, T/C (second compound 1 µM, first compound 0.03 µM): 89.7%
viability, T/C (second compound 1 µM, first compound 0.0949 µM): 78.9%
viability, T/C (second compound 1 µM, first compound 0.3 µM): 75.3%
viability, T/C (second compound 1 µM, first compound 0.949 µM): 69.2%
viability, T/C (second compound 1 µM, first compound 3 µM): 53%
